How the values were obtained:
[1] = target: HRAS wild-type protein (Homo sapiens, UniProt P01112); assay: Binding to HRAS by surface plasmon resonance (SPR), KD and KD ratio to KRAS; conditions: ratio of the KD value with respect to HRAS wild-type protein to the KD value with respect to KRAS
How it was run: (§1)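 Captured GDP-RAS (~100–300 RU) was exposed to increasing compound concentrations, 75 s per step, in running buffer with 10 µM GDP, 10 mM MgCl2 and 4% DMSO at pH 7.4.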

[2] = test system: human lung cancer strain NCI-H441; type: cell-based
How it was run: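 Step one: dispense the test compound in serial DMSO dilutions. Step three: add the reagent and measure […].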

[3] = target: GDP-bound NRAS wild-type protein (Homo sapiens, UniProt P01111); assay: Binding to NRAS by surface plasmon resonance (SPR), KD and KD ratio to KRAS; conditions: ratio of the KD value with respect to GDP-bound NRAS wild-type protein to the KD value with respect to KRAS
Chain of GDP-bound NRAS wild-type protein (P01111 whole entry): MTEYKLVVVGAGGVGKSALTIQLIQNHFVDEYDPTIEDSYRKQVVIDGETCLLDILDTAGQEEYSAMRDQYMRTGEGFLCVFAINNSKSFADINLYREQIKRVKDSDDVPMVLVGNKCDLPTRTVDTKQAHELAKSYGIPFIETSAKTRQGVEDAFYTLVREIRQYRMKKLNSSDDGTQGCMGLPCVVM
How it was run: as §1

Chain of HRAS wild-type protein (P01112 whole entry): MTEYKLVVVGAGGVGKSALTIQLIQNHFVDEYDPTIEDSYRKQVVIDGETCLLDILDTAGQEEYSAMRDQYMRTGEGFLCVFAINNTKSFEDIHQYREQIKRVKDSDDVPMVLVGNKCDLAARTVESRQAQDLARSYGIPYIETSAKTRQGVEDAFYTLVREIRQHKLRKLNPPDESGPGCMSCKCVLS

## CCO[C@@H]1C[C@H]2C(=O)NC3(CCC3)C(=O)N(C)[C@@H](C3CCCC3)C(=O)N(CC)[C@H](C(=O)N3CCOCC3)CC(=O)N(C)[C@@H](CC(C)C)C(=O)N[C@@H]([C@@H](C)CC)C(=O)N(C)CC(=O)N(C)[C@H]3CCCCN(C3=O)[C@@H](Cc3ccc(C(F)(F)F)cc3)C(=O)N(C)CC(=O)N[C@@H](CCc3cc(F)c(C(F)(F)F)c(F)c3)C(=O)N2C1 [PP0648]
[1]
  HRAS /KRAS: B (a compound having 3 or more and less than 10 is denoted as B)
[2]
  IC50: 20.8 nM
[3]
  NRAS /KRAS: B (a compound having 3 or more and less than 10 is denoted as B)

## CCCN1C(=O)[C@H](C2CCCC2)N(C)C(=O)C2(CCC2)NC(=O)[C@@H]2C[C@@H](OCC)CN2C(=O)[C@H](CCc2cc(F)c(C(F)(F)F)c(F)c2)NC(=O)CN(C)C(=O)[C@H](Cc2ccc(C(F)(F)F)cc2)N2CCCC[C@@H](C2=O)N(C)C(=O)CN(C)C(=O)[C@H]([C@@H](C)CC)NC(=O)[C@H](CC(C)C)N(C)C(=O)C[C@H]1C(=O)N1CCOCC1 [PP0649]
[1]
  HRAS /KRAS: B (a compound having 3 or more and less than 10 is denoted as B)
[2]
  IC50: 30.2 nM
[3]
  NRAS /KRAS: C (A compound having a KD ratio of 0.1 or more and less than 3 is denoted as C)

## CCO[C@@H]1C[C@H]2C(=O)NC3(CCC3)C(=O)N(C)[C@@H](C3CCCC3)C(=O)N(CCC3CCC3)[C@H](C(=O)N3CCOCC3)CC(=O)N(C)[C@@H](CC(C)C)C(=O)N[C@@H]([C@@H](C)CC)C(=O)N(C)CC(=O)N(C)[C@H]3CCCCN(C3=O)[C@@H](Cc3ccc(C(F)(F)F)cc3)C(=O)N(C)CC(=O)N[C@@H](CCc3cc(F)c(C(F)(F)F)c(F)c3)C(=O)N2C1 [PP0650]
[1]
  HRAS /KRAS: B (a compound having 3 or more and less than 10 is denoted as B)
[2]
  IC50: 45.7 nM
[3]
  NRAS /KRAS: C (A compound having a KD ratio of 0.1 or more and less than 3 is denoted as C)

## CCO[C@@H]1C[C@H]2C(=O)NC3(CCC3)C(=O)N(C)[C@@H](C3CCCC3)C(=O)N(CCC3CCCC3)[C@H](C(=O)N3CCOCC3)CC(=O)N(C)[C@@H](CC(C)C)C(=O)N[C@@H]([C@@H](C)CC)C(=O)N(C)CC(=O)N(C)[C@H]3CCCCN(C3=O)[C@@H](Cc3ccc(C(F)(F)F)cc3)C(=O)N(C)CC(=O)N[C@@H](CCc3cc(F)c(C(F)(F)F)c(F)c3)C(=O)N2C1 [PP0651]
[1]
  HRAS /KRAS: B (a compound having 3 or more and less than 10 is denoted as B)
[2]
  IC50: 136 nM
[3]
  NRAS /KRAS: B (a compound having 3 or more and less than 10 is denoted as B)

## CC[C@H](C)[C@@H]1NC(=O)[C@H](CC)N(C)C(=O)C[C@@H](C(=O)N(C)C)N(C)C(=O)[C@H](C2CCCC2)N(C)C(=O)C2(CCC2)NC(=O)[C@@H]2CCCCN2C(=O)[C@H](CCc2cc(F)c(C(F)(F)F)c(F)c2)NC(=O)CN(C)C(=O)[C@H](Cc2ccc(C(F)(F)F)cc2)N2CCCCC[C@@H](C2=O)N(C)C(=O)CN(C)C1=O [PP0655]
[1]
  HRAS /KRAS: B (a compound having 3 or more and less than 10 is denoted as B)
[2]
  IC50: 125 nM
[3]
  NRAS /KRAS: B (a compound having 3 or more and less than 10 is denoted as B)

## CC[C@H](C)[C@@H]1NC(=O)[C@H](CC)N(C)C(=O)C[C@@H](C(=O)N(C)C)N(C)C(=O)[C@H](C2CCCC2)N(C)C(=O)C2(CCC2)NC(=O)[C@@H]2C[C@@H](N3CCC(F)(F)CC3)CN2C(=O)[C@H](CCc2cc(F)c(C(F)(F)F)c(F)c2)NC(=O)CN(C)C(=O)[C@H](Cc2ccc(C(F)(F)F)cc2)N2CCCC[C@@H](C2=O)N(C)C(=O)CN(C)C1=O [PP0656]
[1]
  HRAS /KRAS: C (A compound having a KD ratio of 0.1 or more and less than 3 is denoted as C)
[2]
  IC50: 26.5 nM
[3]
  NRAS /KRAS: C (A compound having a KD ratio of 0.1 or more and less than 3 is denoted as C)

## CC[C@H](C)[C@@H]1NC(=O)[C@H](CC)N(C)C(=O)C[C@@H](C(=O)N(C)C)N(C)C(=O)[C@H](C2CCCC2)N(C)C(=O)C2(CCC2)NC(=O)[C@@H]2CCN2C(=O)[C@H](CCc2cc(F)c(C(F)(F)F)c(F)c2)NC(=O)CN(C)C(=O)[C@H](Cc2ccc(C(F)(F)F)cc2)N2CCCC[C@@H](C2=O)N(C)C(=O)CN(C)C1=O [PP0657]
[1]
  HRAS /KRAS: B (a compound having 3 or more and less than 10 is denoted as B)
[2]
  IC50: 32.9 nM
[3]
  NRAS /KRAS: B (a compound having 3 or more and less than 10 is denoted as B)

## CC[C@H](C)[C@@H]1NC(=O)[C@H](CC)N(C)C(=O)C[C@@H](C(=O)N(C)C)N(C)C(=O)[C@H](C2CCCC2)N(C)C(=O)C2(CCC2)NC(=O)[C@@H]2CCCCN2C(=O)[C@H](CCc2cc(F)c(C(F)(F)F)c(F)c2)NC(=O)CN(C)C(=O)[C@H](Cc2ccc(C(F)(F)F)cc2)N2CCCC[C@@H](C2=O)N(C)C(=O)CN(C)C1=O [PP0658]
[1]
  HRAS /KRAS: B (a compound having 3 or more and less than 10 is denoted as B)
[2]
  IC50: 10.3 nM
[3]
  NRAS /KRAS: C (A compound having a KD ratio of 0.1 or more and less than 3 is denoted as C)

## CC[C@H](C)[C@@H]1NC(=O)[C@H](CC)N(C)C(=O)C[C@@H](C(=O)N(C)C)N(CC)C(=O)[C@H](C2CCCC2)N(C)C(=O)C2(CCC2)NC(=O)[C@@H]2C[C@H](N3CCC(F)(F)CC3)CN2C(=O)[C@H](CCc2cc(F)c(C(F)(F)F)c(F)c2)NC(=O)CN(C)C(=O)[C@H](Cc2ccc(C(F)(F)F)cc2)N2CCCC[C@@H](C2=O)N(C)C(=O)CN(C)C1=O [PP0659]
[1]
  HRAS /KRAS: B (a compound having 3 or more and less than 10 is denoted as B)
[2]
  IC50: 184 nM
[3]
  NRAS /KRAS: B (a compound having 3 or more and less than 10 is denoted as B)

## CC[C@H](C)[C@@H]1NC(=O)[C@H](CC)N(C)C(=O)C[C@@H](C(=O)N(C)C)N(CC)C(=O)[C@H](C2CCCC2)N(C)C(=O)C2(CCC2)NC(=O)[C@@H]2CCN2C(=O)[C@H](CCc2cc(F)c(C(F)(F)F)c(F)c2)NC(=O)CN(C)C(=O)[C@H](Cc2ccc(C(F)(F)F)cc2)N2CCCC[C@@H](C2=O)N(C)C(=O)CN(C)C1=O [PP0660]
[1]
  HRAS /KRAS: B (a compound having 3 or more and less than 10 is denoted as B)
[2]
  IC50: 131 nM
[3]
  NRAS /KRAS: B (a compound having 3 or more and less than 10 is denoted as B)

## CC[C@H](C)[C@@H]1NC(=O)[C@H](CC)N(C)C(=O)C[C@@H](C(=O)N(C)C)N(CC)C(=O)[C@H](C2CCCC2)N(C)C(=O)C2(CCC2)NC(=O)[C@@H]2CCCCN2C(=O)[C@H](CCc2cc(F)c(C(F)(F)F)c(F)c2)NC(=O)CN(C)C(=O)[C@H](Cc2ccc(C(F)(F)F)cc2)N2CCCC[C@@H](C2=O)N(C)C(=O)CN(C)C1=O [PP0661]
[1]
  HRAS /KRAS: B (a compound having 3 or more and less than 10 is denoted as B)
[2]
  IC50: 56.6 nM
[3]
  NRAS /KRAS: C (A compound having a KD ratio of 0.1 or more and less than 3 is denoted as C)

## CC[C@H](C)[C@@H]1NC(=O)[C@H](CC(C)C)N(C)C(=O)C[C@@H](C(=O)N2CCOCC2)N(C)C(=O)[C@H](C2CCCC2)N(C)C(=O)C2(CCCC2)NC(=O)[C@@H]2[C@@H](O)CCN2C(=O)[C@H](CCc2cc(F)c(C(F)(F)F)c(F)c2)NC(=O)CN(C)C(=O)[C@H](Cc2ccc(C(F)(F)F)cc2)N2CCCCC[C@@H](C2=O)N(C)C(=O)CN(C)C1=O [PP0662]
[1]
  HRAS /KRAS: B (a compound having 3 or more and less than 10 is denoted as B)
[2]
  IC50: 1570 nM
[3]
  NRAS /KRAS: B (a compound having 3 or more and less than 10 is denoted as B)
